Data: ChEMBL document CHEMBL1759975, “Development of selective and reversible pyrazoline based MAO-B inhibitors: virtual screening, synthesis and biological evaluation” (Bioorg Med Chem Lett, 2011)

Columns and labels:
[1] = target: T1, Amine oxidase [flavin-containing] A (Rattus norvegicus, UniProt P21396); test: Competitive inhibition of rat liver MAO-A after 60 mins using p-tyramine as substrate by spectrophotometry
T1 sequence (P21396 whole entry): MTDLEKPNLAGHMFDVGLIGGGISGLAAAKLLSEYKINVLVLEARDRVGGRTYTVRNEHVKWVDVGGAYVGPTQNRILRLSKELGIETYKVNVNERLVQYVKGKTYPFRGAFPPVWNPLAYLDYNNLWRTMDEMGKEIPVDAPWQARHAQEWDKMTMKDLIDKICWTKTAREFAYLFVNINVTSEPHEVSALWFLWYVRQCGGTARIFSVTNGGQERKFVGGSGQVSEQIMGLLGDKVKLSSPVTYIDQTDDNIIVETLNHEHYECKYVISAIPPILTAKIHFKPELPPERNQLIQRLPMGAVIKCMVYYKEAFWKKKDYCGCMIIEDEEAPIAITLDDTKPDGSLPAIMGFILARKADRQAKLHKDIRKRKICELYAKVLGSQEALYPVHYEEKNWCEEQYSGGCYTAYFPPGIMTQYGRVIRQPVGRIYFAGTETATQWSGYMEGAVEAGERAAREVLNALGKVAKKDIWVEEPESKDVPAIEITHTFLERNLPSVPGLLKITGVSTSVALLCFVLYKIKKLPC

[2] = target: T2, Amine oxidase [flavin-containing] A (Homo sapiens, UniProt P21397); test: Competitive inhibition of human recombinant MAO-A after 60 mins using p-tyramine as substrate by spectrophotometry
T2 sequence (P21397 whole entry): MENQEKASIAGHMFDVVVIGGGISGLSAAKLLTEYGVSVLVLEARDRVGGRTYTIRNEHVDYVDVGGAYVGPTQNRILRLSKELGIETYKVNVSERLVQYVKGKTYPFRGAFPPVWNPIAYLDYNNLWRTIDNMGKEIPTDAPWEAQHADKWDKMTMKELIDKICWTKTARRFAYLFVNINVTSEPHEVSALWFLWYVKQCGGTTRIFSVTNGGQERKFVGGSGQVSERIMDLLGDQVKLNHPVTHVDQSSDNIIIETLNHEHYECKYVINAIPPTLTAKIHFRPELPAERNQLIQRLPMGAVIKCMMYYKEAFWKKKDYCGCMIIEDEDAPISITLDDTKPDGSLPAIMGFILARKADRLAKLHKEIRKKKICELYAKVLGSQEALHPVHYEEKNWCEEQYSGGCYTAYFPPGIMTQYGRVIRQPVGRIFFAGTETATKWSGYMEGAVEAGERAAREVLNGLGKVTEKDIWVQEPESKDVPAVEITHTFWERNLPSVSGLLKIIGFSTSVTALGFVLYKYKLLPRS

[3] = target: T3, Amine oxidase [flavin-containing] B (Rattus norvegicus, UniProt P19643); test: Competitive inhibition of rat liver MAO-B after 60 mins using p-tyramine as substrate by spectrophotometry
T3 sequence (P19643 whole entry): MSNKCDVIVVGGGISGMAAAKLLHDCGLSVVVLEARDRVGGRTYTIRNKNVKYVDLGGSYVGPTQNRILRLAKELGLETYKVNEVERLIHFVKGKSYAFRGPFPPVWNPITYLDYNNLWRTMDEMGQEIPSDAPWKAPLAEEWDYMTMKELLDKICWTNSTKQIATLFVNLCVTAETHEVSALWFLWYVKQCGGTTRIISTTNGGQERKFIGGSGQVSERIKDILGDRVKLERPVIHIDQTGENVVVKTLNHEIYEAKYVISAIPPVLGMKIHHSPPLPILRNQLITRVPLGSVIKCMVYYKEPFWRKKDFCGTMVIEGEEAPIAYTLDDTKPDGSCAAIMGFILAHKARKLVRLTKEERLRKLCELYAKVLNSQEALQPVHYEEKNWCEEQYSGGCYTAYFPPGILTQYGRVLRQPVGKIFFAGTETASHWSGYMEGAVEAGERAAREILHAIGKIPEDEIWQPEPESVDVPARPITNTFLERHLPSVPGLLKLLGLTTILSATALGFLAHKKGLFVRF

[4] = target: T4, Amine oxidase [flavin-containing] B (Homo sapiens, UniProt P27338)
T4 sequence (P27338 whole entry): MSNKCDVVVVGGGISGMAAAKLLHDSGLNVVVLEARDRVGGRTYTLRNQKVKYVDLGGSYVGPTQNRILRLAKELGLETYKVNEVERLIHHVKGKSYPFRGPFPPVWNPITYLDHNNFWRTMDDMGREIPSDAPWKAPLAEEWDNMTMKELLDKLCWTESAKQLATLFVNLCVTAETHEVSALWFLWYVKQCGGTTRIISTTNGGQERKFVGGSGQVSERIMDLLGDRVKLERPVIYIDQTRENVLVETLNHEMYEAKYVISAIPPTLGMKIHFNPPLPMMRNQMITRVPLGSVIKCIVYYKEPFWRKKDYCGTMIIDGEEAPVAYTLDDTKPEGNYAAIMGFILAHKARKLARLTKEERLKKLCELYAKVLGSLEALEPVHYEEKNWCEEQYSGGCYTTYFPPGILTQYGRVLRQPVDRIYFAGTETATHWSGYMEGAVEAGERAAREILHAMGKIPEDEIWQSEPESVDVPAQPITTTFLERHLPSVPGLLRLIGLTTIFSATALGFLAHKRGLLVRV
Description: Competitive inhibition of human recombinant MAO-B after 60 mins using p-tyramine as substrate by spectrophotometry

## c1ccc(C2CC(c3c4ccccc4cc4ccccc34)=NN2)nc1 (stereo not drawn)
[1]
  Ki: 0.242 µM
[2]
  Ki: 0.205 µM
[3]
  Ki: 0.00991 µM
[4]
  Ki: 0.00575 µM

## Oc1ccc(C2CC(c3c4ccccc4cc4ccccc34)=NN2)c(O)c1 (stereo not drawn)
[1]
  Ki: 0.0956 µM
[2]
  Ki: 0.0815 µM
[3]
  Ki: 0.00477 µM
[4]
  Ki: 0.00554 µM

## Clc1ccc(C2CC(c3c4ccccc4cc4ccccc34)=NN2)cc1 (stereo not drawn)
[1]
  Ki: 0.32 µM
[2]
  Ki: 0.281 µM
[3]
  Ki: 0.0021 µM
[4]
  Ki: 0.0018 µM

## Oc1ccc(C2CC(c3c4ccccc4cc4ccccc34)=NN2)cc1 (stereo not drawn)
[1]
  Ki: 0.385 µM
[2]
  Ki: 0.225 µM
[3]
  Ki: 0.00675 µM
[4]
  Ki: 0.00751 µM

## COc1ccc(C2CC(c3c4ccccc4cc4ccccc34)=NN2)cc1 (stereo not drawn)
[1]
  Ki: 0.23 µM
[2]
  Ki: 0.301 µM

## O=[N+]([O-])c1cccc(C2CC(c3c4ccccc4cc4ccccc34)=NN2)c1 (stereo not drawn)
[1]
  Ki: 0.0439 µM
[2]
  Ki: 0.0322 µM
[3]
  Ki: 0.00045 µM
[4]
  Ki: 0.00031 µM

## Cc1ccc(C2CC(c3c4ccccc4cc4ccccc34)=NN2)cc1 (stereo not drawn)
[1]
  Ki: 0.389 µM
[2]
  Ki: 0.25 µM
[3]
  Ki: 0.0038 µM
[4]
  Ki: 0.00356 µM

## c1ccc(C2CC(c3c4ccccc4cc4ccccc34)=NN2)cc1 (stereo not drawn)
[1]
  Ki: 0.397 µM
[2]
  Ki: 0.332 µM
[3]
  Ki: 0.00343 µM
[4]
  Ki: 0.00421 µM

## O=[N+]([O-])c1ccc(C2CC(c3c4ccccc4cc4ccccc34)=NN2)cc1 (stereo not drawn)
[1]
  Ki: 0.0201 µM
[2]
  Ki: 0.0171 µM
[3]
  Ki: 0.0023 µM
[4]
  Ki: 0.00115 µM

## Oc1ccccc1C1CC(c2c3ccccc3cc3ccccc23)=NN1 (stereo not drawn)
[1]
  Ki: 0.0776 µM
[2]
  Ki: 0.0699 µM
[3]
  Ki: 0.00591 µM
[4]
  Ki: 0.00735 µM
